According to US20240262842A1, “SMALL MOLECULE INHIBITORS OF KRAS G12C MUTANT” (Merck Sharp & Dohme LLC, priority 2021, published 2024):
Where two headings read alike, the source gives them in different places.

How the values were obtained:
[1] = molecular target: T1, interaction between GMPPNP-bound recombinant K-Ras4B G12C mutant protein and cRAF RAS-binding domain (cRAF-RBD) (Homo sapiens, UniProt P01116, G12C); experiment: Inhibitory activity on interaction between KRAS G12C and cRAF (Alpha technology)
T1 construct: His-tag (N)
Summary of the method: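 His-tagged K-Ras4B G12C (aa 1-169), GMPPNP-loaded, preincubated with compound 1 h at 25° C in pH 7.5 Tris buffer with MgCl2, TCEP, Tween 20. cRAF-RBD (aa 50-132) and Alpha reagents then added for 1.5 h; Alpha signal normalised to DMSO (0%) and GDP-bound KRAS (100%); IC50 from dose titration.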

MIA PaCa-2 cells = experiment: Growth inhibition activity on KRAS-G12C mutant cell line (CellTiter-Glo 3D); assay type: cell-based, human; conditions: MIA PaCa-2, 3-day culture with compound
Summary of the method: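 MIA PaCa-2 cells in RPMI1640 with 10% FBS, U-bottom wells, cultured 1 day before compound (0.2% DMSO final), then 3 days at 37 °C, 5% CO2. Viability by CellTiter-Glo 3D luminescence; growth inhibition versus untreated wells gives IC50 (nM).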

[2] = IC50, GMPPNP-bound KRAS G12C incubated with compound 25° C. 1 hour, Table 2
[3] = Homo sapiens, MIA PaCa-2, 72 h, Table 3
[4] = GMPPNP-bound KRAS G12C incubated with compound 25° C. 1 hour, Table 2, read-out: IC50
[5] = GMPPNP-bound KRAS G12C incubated with compound 25° C. 1 hour, Table 2-1, read-out: IC50
[6] = Homo sapiens, MIA PaCa-2, 72 h, Table 3-1

T1 sequence (P01116 with tags, fused parts or gaps isoform P01116-2 G12C): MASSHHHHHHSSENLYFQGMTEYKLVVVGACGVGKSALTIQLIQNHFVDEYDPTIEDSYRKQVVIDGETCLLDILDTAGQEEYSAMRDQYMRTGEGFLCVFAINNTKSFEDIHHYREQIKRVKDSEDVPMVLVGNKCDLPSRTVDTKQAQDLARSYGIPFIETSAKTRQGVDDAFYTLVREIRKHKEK

SMILES: CO[C@H]1CC[C@H](NC/C=C/C(=O)Nc2c(F)cc(C(=O)c3cn4c5c(cccc35)-c3c(C)cc5c(nc(C)n5C)c3N(C)C(=O)C4)cc2F)CC1 [Example 47, (E)-N-(2,6-difluoro-4-(6,8,9,11-tetramethyl-12-oxo-8,11,12,13-tetrahydroimidazo[4″,5″:5′,6′]benzo[1′,2′:5,6][1,4]diazocino[7,8,1-hi]indole-2-carbonyl)phenyl)-4-(((1r,4r)-4-methoxycyclohexyl)amino)but-2-enamide]
- IC50 [1, 2]: 23 nM
- IC50 (MIA PaCa-2 cells; [3]): 59 nM

SMILES: CO[C@H]1CC[C@H](NC/C=C/C(=O)Nc2c(F)cc(C(=O)c3cc4c5c(cccn35)-c3c(C(F)(F)F)cc5c(nc(C)n5C)c3OC(C)C4)cc2F)CC1 (stereo partly shown) [Example 42, (E)-N-(2,6-difluoro-4-(9,10,13-trimethyl-7-(trifluoromethyl)-13,14-dihydro-9H-imidazo[4″,5″:5′,6′]benzo[1′,2′:2,3]oxocino[4,5,6-hi]indolizine-2-carbonyl)phenyl)-4-(((1r,4r)-4-methoxycyclohexyl)amino)but-2-enamide]
- IC50 [1, 4]: 18 nM
- IC50 (MIA PaCa-2 cells; [3]): 9 nM

SMILES: Cn1cnc2c3c(c(C(F)(F)F)cc21)-c1cccn2c(C(=O)c4cc(F)c(NC(=O)/C=C/CN5CC6(COC6)C5)c(F)c4)cc(c12)CCO3 [Example 198, (E)-N-(2,6-difluoro-4-(9-methyl-7-(trifluorometh-yl)-13,14-dihydro-9H-imidazo[4″,5″:5′,6′]benzo-[1′,2′:2,3]oxocino[4,5,6-hi]indolizine-2-carbonyl)-phenyl)-4-(2-oxa-6-azaspiro[3.3]heptan-6-yl)but-2-enamide]
- IC50 [1, 5]: 57.1 nM
- IC50 (MIA PaCa-2 cells; [6]): 21.4 nM

SMILES: CO[C@H]1CC[C@H](NC/C=C/C(=O)Nc2c(F)cc(C(=O)c3cn4c5c(cccc35)-c3c(C(F)(F)F)cc5c(nc(C)n5C)c3CCC4)cc2F)CC1 [Example 28, (E)-N-(4-(8,9-dimethyl-6-(trifluoromethyl)-8,11,12,13-tetrahydroimidazo[4″,5″:3′,4′]benzo[1′,2:4,5]azocino[3,2,1-hi]indole-2-carbonyl)-2,6-difluorophenyl)-4-(((1r,4r)-4-methoxycyclohexyl)amino)but-2-enamide]
- IC50 [1, 2]: 53 nM
- IC50 (MIA PaCa-2 cells; [3]): 17 nM

SMILES: CO[C@H]1CC[C@H](NC/C=C/C(=O)Nc2c(F)cc(C(=O)c3cc4c5c(cccn35)-c3c(C(F)(F)F)cc5c(nc(C)n5C)c3OCC4)cc2F)CC1 (single isomer, unassigned) [Example 30-2, (E)-N-(4-(9,10-dimethyl-7-(trifluoromethyl)-13,14-dihydro-9H-imidazo[4″,5″:5′,6′]benzo[1′,2′:2,3]oxocino[4,5,6-hi]indolizine-2-carbonyl)-2,6-difluorophenyl)-4-(((1r,4r)-4-methoxycyclohexyl)amino)but-2-enamide]
- IC50 [1, 4]: 6000 nM
- IC50 (MIA PaCa-2 cells; Table 3): 1600 nM

SMILES: CO[C@H]1CC[C@H](NC/C=C/C(=O)Nc2c(F)cc(C(=O)c3cn4c5c(cccc35)-c3c(C(F)(F)F)cc5c(nc(C)n5C)c3N(C)CC4)cc2F)CC1 [Example 45, (E)-N-(2,6-difluoro-4-(8,9,11-trimethyl-6-(trifluoromethyl)-8,11,12,13-tetrahydroimidazo[4′ 5,6][1,4]diazocino[7,8,1-hi]indole-2-carbonyl)phenyl)-4-(((1,4r)-4-methoxycyclohexyl)amino)but-2-enamide]
- IC50 [1, 2]: 21 nM
- IC50 (MIA PaCa-2 cells; [3]): 5 nM

SMILES: Cc1cc2c(ncn2C)c2c1-c1cccn3c(C(=O)c4cc(F)c(NC(=O)/C=C/CNC5(C)CCOCC5)c(F)c4)cc(c13)CCN2C [Example 116]
- IC50 [1, 5]: 26.6 nM
- IC50 (MIA PaCa-2 cells; [6]): 29.9 nM

SMILES: Cc1nnc2c3c(c(C(F)(F)F)cn12)-c1cccn2c(C(=O)c4cc(F)c(NC(=O)/C=C/CNC5(C)COC5)c(F)c4)cc(c12)CCN3C (single isomer, unassigned) [Example 216, (E)-N-(4-(10,13-dimethyl-7-(trifluoromethyl)-14,15-dihydro-13H-[1,2,4]-triazolo[4″,3″:1′,2′]pyrido-[3′,4′:2,3]azocino[4,5,6-hi]indolizine-2-carbonyl)-2,6-difluorophenyl)-4-((3-methyloxetan-3-yl)-amino)but-2-enamide]
- IC50 [1, 5]: 57.6 nM
- IC50 (MIA PaCa-2 cells; [6]): 23.3 nM

SMILES: CN1CCc2nc(C(=O)c3cc(F)c(NC(=O)/C=C/CNC4(C)CC4)c(F)c3)n3cccc(c23)-c2c(C(F)(F)F)cc3c(ncn3C)c21 (single isomer, unassigned) [Example 182]
- IC50 [1, 5]: 35.2 nM
- IC50 (MIA PaCa-2 cells; [6]): 27.8 nM

SMILES: COCc1nc2c3c(c(C(F)(F)F)cc2n1C)-c1cccn2c(C(=O)c4cc(F)c(NC(=O)/C=C/CNC5(C)COC5)c(F)c4)cc(c12)CCN3C (single isomer, unassigned) [Example 92, (E)-N-(2,6-difluoro-4-(10-(methoxymethyl)-9,12-dimethyl-7-(trifluoromethyl)-9,12,13,14-tetrahydroimidazo[4″,5″:5′,6′]benzo[1′,2′:2,3]azocino[4,5,6-hi]indolizine-2-carbonyl)phenyl)-4-((3-methyloxetan-3-yl)amino)but-2-enamide]
- IC50 [1, 5]: 19.9 nM
- IC50 (MIA PaCa-2 cells; [6]): 12.1 nM

SMILES: COCCn1c(C)nc2c3c(c(OC)cc21)-c1cccn2c(C(=O)c4cc(F)c(NC(=O)/C=C/CNC5(C)CC5)c(F)c4)cc(c12)CC[S+]3[O-] (stereo not shown) [Example 241]
- IC50 [1, 5]: 31 nM
- IC50 (MIA PaCa-2 cells; [6]): 877 nM

SMILES: Cc1nnc2c3c(c(C(F)(F)F)cn12)-c1cccn2c(C(=O)c4cc(F)c(NC(=O)/C=C/CN[C@H]5CCOC5)c(F)c4)cc(c12)CCN3C [Example 217, (S,E)-N-(4-(10,13-dimethyl-7-(trifluoromethyl)-14,15-dihydro-13H-[1,2,4]triazolo[4″,3″:1′,2′]pyrido[3′,4′:2,3]azocino[4,5,6-hi]indolizine-2-carbonyl)-2,6-difluorophenyl)-4-((tetrahydrofuran-3-yl)amino)but-2-enamide]
- IC50 [1, 5]: 19.7 nM
- IC50 (MIA PaCa-2 cells; [6]): 6.22 nM

SMILES: Cc1nc2c3c(c(C(F)(F)F)cc2n1C)-c1cccc2c(C(=O)c4cc(F)c(NC(=O)/C=C/CNC5(C)COC5)c(F)c4)cn(c12)CCN3C (single isomer, unassigned) [Example 54]
- IC50 ([1]; IC50, GMPPNP-bound KRAS G12C incubated with compound 25° C. 1 hour, Table 2-1): 22.1 nM
- IC50 (MIA PaCa-2 cells; [6]): 5.39 nM

SMILES: Cn1cnc2c3c(c(C(F)(F)F)cc21)-c1cccn2c(C(=O)c4cc(F)c(NC(=O)/C=C/CN5C[C@@H]6C[C@H]5CO6)c(F)c4)cc(c12)CCO3 [Example 189, (E)-4-((1S,4S)-2-oxa-5-azabicyclo[2.2.1]heptan-5-yl)-N-(2,6-difluoro-4-(9-methyl-7-(trifluoro-methyl)-13,14-dihydro-9H-imidazo[4″,5″:5′,6′]-benzo[1′,2′:2,3]oxocino-[4,5,6-hi]indolizine-2-carbonyl)phenyl)but-2-enamide]
- IC50 [1, 5]: 15.2 nM
- IC50 (MIA PaCa-2 cells; [6]): 6.1 nM

SMILES: COCc1nc2c3c(c(OC)cc2n1C)-c1cccn2c(C(=O)c4cc(F)c(NC(=O)/C=C/CNC5(C)COC5)c(F)c4)cc(c12)CCN3C (single isomer, unassigned) [Example 170, (E)-N-(2,6-difluoro-4-(7-methoxy-10-(methoxy-methyl)-9,12-dimethyl-9,12,13,14-tetrahydro-imidazo[4″,5″:5′,6′]benzo-[1′,2′:2,3]azocino[4,5,6-hi]indolizine-2-carbonyl)-phenyl)-4-((3-methyl-oxetan-3-yl)amino)but-2-enamide]
- IC50 [1, 5]: 14.1 nM
- IC50 (MIA PaCa-2 cells; [6]): 47.7 nM

SMILES: COc1cc2c(nc(C)n2C)c2c1-c1cccn3c(C(=O)c4cc(F)c(NC(=O)/C=C/CNC5(C)CC5)c(F)c4)cc(c13)CCN2C (single isomer, unassigned) [Example 140, (E)-N-(2,6-difluoro-4-(7-methoxy-9,10,12-trimethyl-9,12,13,14-tetrahydroimidazo[4″,5″:5′,6′]benzo[1′,2′:2,3]azocino[4,5,6-hi]indolizine-2-carbonyl)phenyl)-4-((1-methylcyclopropyl)amino)but-2-enamide]
- IC50 [1, 5]: 4.13 nM
- IC50 (MIA PaCa-2 cells; [6]): 7.59 nM

SMILES: CC(=O)N1CCC(C)(NC/C=C/C(=O)Nc2c(F)cc(C(=O)c3cc4c5c(cccn35)-c3c(C(F)(F)F)cc5c(ncn5C)c3N(C)CC4)cc2F)CC1 [Example 86, (E)-4-((1-acetyl-4-methyl-piperidin-4-yl)amino)-N-(4-(9,12-dimethyl-7-(trifluoromethyl)-9,12,13,14-tetrahydro-imidazo[4″,5″:5′,6′]benzo-[1′,2′:2,3]azocino[4,5,6-hi]indolizine-2-carbonyl)-2,6-difluorophenyl)but-2-enamide]
- IC50 [1, 5]: 22.3 nM
- IC50 (MIA PaCa-2 cells; [6]): 6.11 nM

SMILES: CN1CCc2cc(C(=O)c3cc(F)c(NC(=O)/C=C/CNC4(C)CSC4)c(F)c3)n3cccc(c23)-c2c(C(F)(F)F)cc3c(ncn3C)c21 [Example 249]
- IC50 [1, 5]: 27.5 nM
- IC50 (MIA PaCa-2 cells; [6]): 28.6 nM

SMILES: COCc1nc2c3c(c(OC)cc2n1C)-c1cccn2c(C(=O)c4cc(F)c(NC(=O)/C=C/CN[C@H]5CCOC5)c(F)c4)nc(c12)CCN3C (single isomer, unassigned) [Example 177]
- IC50 [1, 5]: 39.5 nM
- IC50 (MIA PaCa-2 cells; [6]): 38.5 nM

SMILES: COCCn1c(C)nc2c3c(c(OC)cc21)-c1cccn2c(C(=O)c4cc(F)c(NC(=O)/C=C/CNC5(C)CC5)c(F)c4)cc(c12)CCN3C (single isomer, unassigned) [Example 200, (E)-N-(2,6-difluoro-4-(7-methoxy-9-(2-methoxyethyl)-10,12-dimethyl-9,12,13,14-tetrahydroimidazo[4″,5″:5′,6′]benzo[1′,2′:2,3]azocino[4,5,6-hi]indolizine-2-carbonyl)phenyl)-4-((1-methylcyclopropyl)amino)but-2-enamide]
- IC50 [1, 5]: 13.7 nM
- IC50 (MIA PaCa-2 cells; [6]): 4.62 nM
